The assay concerns pressor response to exogenous angiotensin II. Nature of the assay: Inhibition of pressor response to angiotensin II in conscious rats. In kind it is in vivo. To be noted: Rattus norvegicus, iv, change in mean arterial pressure, read-out: IC50, dose of compound needed to produce 50% inhibition of the control response to angiotensin II. How it is done:
Angiotensin II antagonist activity of the compounds of Formula (I) is assessed by in and in vivo methods. In vitro antagonist activity is determined by the ability of the compounds to compete with ^125 I-angiotensin II for binding to vascular angiotensin II receptors and by their ability to antagonize the contractile response to angiotensin II in the isolated rabbit aorta. In vivo activity is evaluated by the efficacy of the compounds to inhibit the pressor response to exogenous angiotensin II in conscious rats and to lower blood pressure in a rat model of renin dependent hypertension.
Rats are prepared with indwelling femoral arterial and venous catheters and a stomach tube (Gellai et al., Kidney Int. 15:419, 1979). Two to three days following surgery the rats are placed in a restrainer and blood pressure is continuously monitored from the arterial catheter with a pressure transducer and recorded on a polygraph. The change in mean arterial pressure in response to intravenous injections of […] angiotensin II is compared at various time points prior to and following the administration of the compounds intravenously or orally at doses of 3 to 300 mg/kg. The dose of compound needed to produce 50% inhibition of the control response to angiotensin II (IC50) is used to estimate the potency of the compounds. […]

The text below walks through data of patent US5565480A, “Substituted histidines” (SmithKline Beecham Corporation, priority 1995, dated 1996).

Take `CCCCc1ncc(C[C@H](NC(=O)CCC)C(=O)O)n1Cc1ccccc1Cl` [Example 8, 3-[(2-Chlorophenyl)methyl]-2-n-butyl-N-butyrylhistidine]: the ED50 is 10 mg/kg.
